Paper PMC6044955 (ACS Omega, 2017)

Key:
Format in all cases: cell-based
hα3β2 nAChR = hα3β2 nAChR (Homo sapiens, UniProt P17787+P32297)
hα3β4 nAChR = hα3β4 nAChR (Homo sapiens, UniProt P30926+P32297)
hα9α10 nAChR = hα9α10 nAChR (Homo sapiens, UniProt Q9GZZ6+Q9UGM1)
hα9α10 nAChR, sequence (Q9UGM1 26-479 limits assumed): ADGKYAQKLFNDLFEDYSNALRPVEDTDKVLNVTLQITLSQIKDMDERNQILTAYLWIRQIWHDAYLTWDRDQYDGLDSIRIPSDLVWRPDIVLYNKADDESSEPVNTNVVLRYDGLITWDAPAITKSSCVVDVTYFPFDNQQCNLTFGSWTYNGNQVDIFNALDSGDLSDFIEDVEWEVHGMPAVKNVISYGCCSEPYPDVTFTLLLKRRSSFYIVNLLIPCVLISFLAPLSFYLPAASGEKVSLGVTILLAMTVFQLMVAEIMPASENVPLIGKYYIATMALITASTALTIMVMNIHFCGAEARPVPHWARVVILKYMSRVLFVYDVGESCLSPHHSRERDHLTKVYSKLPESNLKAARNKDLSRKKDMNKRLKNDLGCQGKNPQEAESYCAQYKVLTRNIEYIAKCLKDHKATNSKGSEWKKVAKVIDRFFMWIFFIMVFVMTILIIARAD
hα9α10 nAChR, sequence (Q9GZZ6 25-450): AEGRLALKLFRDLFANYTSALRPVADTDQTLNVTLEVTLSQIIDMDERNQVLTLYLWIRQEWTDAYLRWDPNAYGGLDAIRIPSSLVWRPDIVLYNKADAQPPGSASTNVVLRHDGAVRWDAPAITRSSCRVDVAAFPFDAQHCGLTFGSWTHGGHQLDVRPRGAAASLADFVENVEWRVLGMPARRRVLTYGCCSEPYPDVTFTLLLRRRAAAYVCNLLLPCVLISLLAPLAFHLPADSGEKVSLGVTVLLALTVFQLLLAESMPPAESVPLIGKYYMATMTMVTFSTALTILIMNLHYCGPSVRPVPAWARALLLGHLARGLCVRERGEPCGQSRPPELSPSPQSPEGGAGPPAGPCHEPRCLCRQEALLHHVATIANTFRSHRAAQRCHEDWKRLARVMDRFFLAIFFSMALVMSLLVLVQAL

hα3β2 nAChR, sequence (P32297 32-505): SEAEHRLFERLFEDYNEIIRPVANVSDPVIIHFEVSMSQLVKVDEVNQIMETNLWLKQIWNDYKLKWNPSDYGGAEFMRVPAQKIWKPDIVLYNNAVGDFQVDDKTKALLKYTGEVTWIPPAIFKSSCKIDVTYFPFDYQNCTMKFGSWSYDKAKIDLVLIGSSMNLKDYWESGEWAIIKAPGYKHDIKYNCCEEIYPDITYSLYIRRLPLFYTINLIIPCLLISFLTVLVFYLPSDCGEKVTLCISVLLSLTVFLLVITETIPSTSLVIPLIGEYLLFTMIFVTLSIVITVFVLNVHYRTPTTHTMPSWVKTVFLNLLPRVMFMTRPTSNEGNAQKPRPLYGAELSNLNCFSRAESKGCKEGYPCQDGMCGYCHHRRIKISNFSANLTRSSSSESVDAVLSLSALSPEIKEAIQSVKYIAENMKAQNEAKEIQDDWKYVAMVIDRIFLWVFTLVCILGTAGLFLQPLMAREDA
hα3β2 nAChR, sequence (P17787 26-502): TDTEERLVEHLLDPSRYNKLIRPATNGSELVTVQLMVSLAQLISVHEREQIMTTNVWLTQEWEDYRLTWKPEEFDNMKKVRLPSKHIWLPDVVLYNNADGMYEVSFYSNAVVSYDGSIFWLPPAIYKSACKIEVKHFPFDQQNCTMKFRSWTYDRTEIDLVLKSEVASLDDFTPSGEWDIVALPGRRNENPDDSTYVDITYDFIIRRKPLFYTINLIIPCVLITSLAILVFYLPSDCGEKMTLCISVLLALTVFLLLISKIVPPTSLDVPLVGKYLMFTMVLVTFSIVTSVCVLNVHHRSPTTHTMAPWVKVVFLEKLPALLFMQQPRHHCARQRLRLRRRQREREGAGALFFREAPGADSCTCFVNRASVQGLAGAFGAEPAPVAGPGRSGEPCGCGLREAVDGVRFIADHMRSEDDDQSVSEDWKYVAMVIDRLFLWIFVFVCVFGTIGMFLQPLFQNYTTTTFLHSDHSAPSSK
hα3β4 nAChR, sequence (P32297 32-505): as the sequence (P32297 32-505) above
hα3β4 nAChR, sequence (P30926 22-498): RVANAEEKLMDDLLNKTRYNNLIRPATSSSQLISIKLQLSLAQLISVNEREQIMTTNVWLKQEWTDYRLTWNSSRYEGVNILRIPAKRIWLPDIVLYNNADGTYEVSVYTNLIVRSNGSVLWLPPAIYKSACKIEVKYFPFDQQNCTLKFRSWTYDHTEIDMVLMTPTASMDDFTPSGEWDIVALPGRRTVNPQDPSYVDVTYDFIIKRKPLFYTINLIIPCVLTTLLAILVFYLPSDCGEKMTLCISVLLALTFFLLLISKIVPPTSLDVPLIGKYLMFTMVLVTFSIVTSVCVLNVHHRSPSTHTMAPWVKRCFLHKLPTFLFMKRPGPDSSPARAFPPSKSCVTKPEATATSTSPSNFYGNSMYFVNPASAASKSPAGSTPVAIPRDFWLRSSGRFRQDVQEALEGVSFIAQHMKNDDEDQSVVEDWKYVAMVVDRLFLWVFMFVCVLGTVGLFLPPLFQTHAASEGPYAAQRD

| Substance | Inhibition of the ACh-evoked current amplitude at hα3β2 nAChR (hα3β2 nAChR) [%] | Inhibition of the ACh-evoked current amplitude at hα3β4 nAChR (hα3β4 nAChR) [%] | Inhibition of ACh-evoked current at hα9α10 nAChR (hα9α10 nAChR) | Inhibition of ACh-evoked current at hα3β2 nAChR (hα3β2 nAChR) |
| --- | --- | --- | --- | --- |
| α-conotoxin BuIA | > 90 | > 90 | – | – |
| α-conotoxin Vc1.1 | – | – | complete inhibition | complete inhibition |
